Measured values as given in patent US20240400604A1, “NUCLEOSIDE TRIPHOSPHATE PHOTOAFFINITY PROBE, METHOD FOR PREPARING SAME, AND APPLICATIONS THEREOF” (SHANDONG UNIVERSITY, priority 2023, published 2024).

Assays:
[1] = tested on: ATP-binding proteins in HEK 293T cell lysates; assay: In-gel fluorescence imaging of HEK 293T cell lysates labeled with the ATP-N probe; settings: 10 μM ATP-N probe, FIG. 23c
[2] = tested on: GTP-binding proteins in HEK 293T cell lysates; assay: In-gel fluorescence imaging of HEK 293T cell lysate labeled with the GTP probes; settings: competitor incubated on ice 10 minutes before probe; 50 μM GTP-O probe (FIG. 11)
Experimental: Appropriate amount cells were incubated on ice for 30 min in 1% lysis buffer (1% Triton X-100, 50 mM HEPES (pH 7.4), 150 mM NaCl, supplemented with phosphatase inhibitor A, phosphatase inhibitor B, and protease inhibitor right before use) at 5-10 times the cell volume. Vortexing for 5 seconds every 10 minutes. The cell lysates were centrifuged at 12,000 rpm at 4° C. for 30 min, and the supernatants were passed through an Amersham NAP-5 column to remove endogenous nucleosides. The proteins were quantified using a Bradford protein assay kit. Approximately 100 μg protein was diluted with 0.1% lysis buffer (0.1% Triton X-100, 50 mM HEPES, 150 mM sodium chloride). To the solution was added 1 mM magnesium chloride, the GTP probe and competitors to designated concentrations. The final volume for the reaction was 100 μL and the final protein concentration was […]. After incubated on ice, the solution was irradiated with 365-nm UV light for 30 min. To the solution were added freshly prepared tris-(2-carboxyethyl)phosphine (TCEP) until its concentration reached 1 mM, and a CuAAC reaction mixture to reach a final concentration of 1 mM CuSO4, 0.1 mM tris[(1-benzyl-1H-1,2,3-triazol-4-yl)methyl]amine (TBTA), and 0.1 mM rhodamine β-PEG3-azide. The mixture was incubated at room temperature for 2 hrs and then precipitated in a solution of chloroform: methanol: water (4:3:1, v/v). After washing with cold methanol and air dried, the protein pellet was dissolved in 30 μL 4% SDS buffer (4% SDS, 50 mM HEPES (pH 7.4), 150 mM NaCl, 50 mM Trolamine). The protein concentration was determined using a BCA protein assay kit. A solution of approximately 20 μg proteins was added 4×loading buffer (0.25M Trometamol, pH=6.8, 4% SDS, 40% Glycerol, 0.02% bromophenol blue, add 200 μL 2-Mercaptoethanol to 800 μL buffer right before use), boiled at 95° C. for 5 min and loaded onto an SDS-PAGE gel (4% stacking gel, 10% separating gel). Then perform SDS-PAGE separation at a constant voltage of 90 V for about 110 minutes. At the end of electrophoresis, cut the separation gel and imaged with an Amersham Imager 600 (GE Healthcare) at 520 nm. The gel was then stained with Coomassie Brilliant Blue staining solution (0.1% Coomassie brilliant blue, 10% acetic acid, 50% methanol) for 30 min and destained with destaining solution (10% acetic acid, 30% methanol) to remove background color.

[3] = molecular target: T1, PLCG1 (Homo sapiens, UniProt P19174); assay: EHT 1864 competitive GTP-N probe labeling of HEK 293T cell lysates, LC-MS/MS; format: binding; settings: GTP-N probe 20 μM; EHT 1864 20, 40, 100, 200 μM
T1 construct: the GTP-N probe was used for protein labeling of HEK 293T cell lysates; endogenous in cells; host or cells: HEK 293T cell lysate
T1 sequence (P19174 1-1290): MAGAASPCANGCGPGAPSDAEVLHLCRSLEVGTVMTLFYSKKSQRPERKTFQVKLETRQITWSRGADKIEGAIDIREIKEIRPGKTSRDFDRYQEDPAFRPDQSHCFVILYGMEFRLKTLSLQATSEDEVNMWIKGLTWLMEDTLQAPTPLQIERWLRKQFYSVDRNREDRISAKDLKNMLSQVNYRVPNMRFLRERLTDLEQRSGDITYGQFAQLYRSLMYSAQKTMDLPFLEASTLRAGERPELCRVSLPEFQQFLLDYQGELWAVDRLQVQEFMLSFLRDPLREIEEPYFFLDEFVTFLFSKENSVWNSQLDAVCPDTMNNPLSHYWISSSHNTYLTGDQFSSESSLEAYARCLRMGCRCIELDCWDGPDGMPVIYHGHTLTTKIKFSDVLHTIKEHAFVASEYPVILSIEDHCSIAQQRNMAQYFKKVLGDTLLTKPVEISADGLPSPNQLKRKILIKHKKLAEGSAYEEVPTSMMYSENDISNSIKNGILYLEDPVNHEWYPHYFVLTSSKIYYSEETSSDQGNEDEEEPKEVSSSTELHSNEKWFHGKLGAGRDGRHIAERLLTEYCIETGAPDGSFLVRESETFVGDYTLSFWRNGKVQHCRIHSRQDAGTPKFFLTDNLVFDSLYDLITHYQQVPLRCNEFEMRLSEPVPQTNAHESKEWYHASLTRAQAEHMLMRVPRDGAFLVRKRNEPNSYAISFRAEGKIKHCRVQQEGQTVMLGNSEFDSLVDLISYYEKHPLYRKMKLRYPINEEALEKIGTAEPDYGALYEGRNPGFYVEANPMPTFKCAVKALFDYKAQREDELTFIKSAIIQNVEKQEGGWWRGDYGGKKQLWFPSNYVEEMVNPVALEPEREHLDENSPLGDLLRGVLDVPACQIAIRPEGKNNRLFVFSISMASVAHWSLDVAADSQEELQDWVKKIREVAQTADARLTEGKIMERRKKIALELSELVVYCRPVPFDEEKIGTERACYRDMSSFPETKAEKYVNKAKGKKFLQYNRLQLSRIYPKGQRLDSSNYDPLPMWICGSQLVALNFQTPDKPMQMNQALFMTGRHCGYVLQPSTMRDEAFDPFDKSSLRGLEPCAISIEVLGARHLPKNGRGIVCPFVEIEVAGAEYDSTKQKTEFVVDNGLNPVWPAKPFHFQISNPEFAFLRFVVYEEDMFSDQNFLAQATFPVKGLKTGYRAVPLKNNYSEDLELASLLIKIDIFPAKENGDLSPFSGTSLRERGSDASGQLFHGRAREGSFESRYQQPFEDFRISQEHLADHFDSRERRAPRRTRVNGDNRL
Experimental: (§1) Using the On-Beads digestion method, the GTP-N probe was used for protein labeling of HEK 293T cell lysates. For the competition experiments, a GTP-competitive inhibitor EHT 1864 was added before probe labeling to inhibit probe binding with targeted GTP-binding proteins. The final concentration of the probe was 20 μM, and EHT 1864 was used at concentrations of 20 μM, 40 μM, 100 μM, and 200 μM, respectively. The inhibitor was pre-incubated with cell lysates on ice for 10 minutes, followed by the GTP-N probe labeling, sample preparation, and LC-MS/MS analysis, same as in Section 1.3 of Example 3.

[4] = molecular target: T2, ACTR3 (Homo sapiens, UniProt P61158); assay: as above; format: binding; settings: GTP-N probe 20 μM; EHT 1864 20, 40, 100, 200 μM
T2 construct: the GTP-N probe was used for protein labeling of HEK 293T cell lysates; endogenous in cells; host or cells: HEK 293T cell lysate
Experimental: as §1

[5] = molecular target: T3, ACTR2 (Homo sapiens, UniProt P61160); assay: as above; format: binding; settings: GTP-N probe 20 μM; EHT 1864 20, 40, 100, 200 μM
T3 construct: endogenous in cells; host or cells: HEK 293T cell lysate
Experimental: as §1

[6] = tested on: GTP-binding proteins in HEK 293T cell lysates; assay: Proteomic LC-MS/MS analysis of HEK 293T cell lysate labeled with GTP probes; parameters: species or system human
Experimental: Under optimized conditions, HEK 293T cell lysates were labeled using the GTP photoaffinity probes. Peptide samples were prepared via the On-Beads enzymatic digestion method for proteomic study. Approximately 1 mg of proteins was labeled with 0.1 mM GTP probe and irradiated with 365-nm UV light for 30 min. To the solution were added freshly prepared tris-(2-carboxyethyl)phosphine (TCEP) until its concentration reached 1 mM, and a CuAAC reaction mixture to reach a final concentration of 1 mM CuSO4, 0.1 mM tris[(1-benzyl-1H-1,2,3-triazol-4-yl)methyl]amine (TBTA), and 0.5 mM biotin-PEG3-azide (for GTP-O probe labeled samples), or 0.5 mM biotin-DADPS-azide (for GTP-N probe labeled samples). The mixture was vortexed at room temperature for 2 hours and then precipitated in ice-cold methanol overnight.
The precipitated proteins were dissolved in 100 μL 4% SDS buffer (4% SDS, 150 mM NaCl, 50 mM HEPES, pH=7.4), and diluted with 900 μL SDS-free HEPES buffer (150 mM NaCl, 50 mM HEPES, pH=7.4). High-capacity streptavidin beads (50 μL per sample) were washed three times with 20 times volume of wash buffer (150 mM sodium chloride, 50 mM HEPES, pH=7.4) before adding to the samples. After incubation on a rotary shaker at room temperature for 2 hours, non-specifically bound proteins were washed away in a centrifugal filtration column using 1× PBS containing 1% SDS, 10× PBS, 1× PBS, water, and 50 mM ammonium bicarbonate solution with 8 M urea, each wash using 1 mL of solution for five times. The beads were transferred to a centrifuge tube using 50 mM ammonium bicarbonate solution containing 8 M urea and resuspended with 500 μL of this solution. The disulfide bonds were reduced by adding 20 mM TCEP and incubating at 37° C. for 1 hour, and then alkylated with 50 mM iodacetamide at room temperature in the dark for 30 minutes. After centrifugation at 3000 rpm for 2 minutes, the supernatant was gently removed. The beads were washed with 25 mM ammonium bicarbonate three times, resuspended in 100 μL 25 mM ammonium bicarbonate, and incubated with 1 μg of MS-grade trypsin (1 μg/μL) at 37° C. for 18 hrs.
The beads were washed with 200 μL of 25 mM ammonium bicarbonate solution, then centrifuged at 12000 rpm for 2 minutes to collect the supernatant. The procedure was repeated 6 times, and the supernatants were combined to obtain sample 1 (peptides without probe modification). For GTP-O probe labeled samples, the beads were resuspended in 200 μL of 70% acetonitrile solution containing 1% trifluoroacetic acid, vortexed for 5 minutes, then centrifuged at 12000 rpm for 2 minutes to collect the supernatant. The procedure was repeated 5 times, and the supernatants were combined to obtain sample 2 (containing probe-modified peptides). For GTP-N probe labeled samples, the beads were resuspended in 100 μL of 10% formic acid, incubated on a rotary shaker at room temperature for 30 minutes, then centrifuged at 12000 rpm for 2 minutes to collect the supernatant. The procedure was repeated 3 times, and the supernatants were combined. Trifluoroacetic acid was added to a final concentration of 1%, and incubated at 37° C. for 30 minutes to obtain sample 2. The peptide solutions were dried with a centrifugal concentrator and desalted using C18 tips, then frozen at −80° C. until LC-MS/MS detection. Samples were dissolved in 20 μL of pure water, 4 μL of sample 1 and 8 μL of sample 2 were injected for analysis.
An EASY-nLC 1200 liquid chromatography coupled with a Q-Exactive Orbitrap mass spectrometer was employed for LC-MS/MS analysis. A homemade C18 capillary column (inner diameter 75 μm, column length 18 cm) packed with Reprosil-Pur120 C18-AQ (Dr. maisch, particle size […]) was utilized as the separation column. The precolumn (inner diameter 150 μm, column length 4 cm) was packed with Reprosil-Pur120 C18-AQ (Dr. maisch, particle size 5 μm,). The mobile phase A was 0.1% formic acid, while mobile phase B was 0.1% formic acid in 80% acetonitrile, and the flow rate was 300 nL/min. […]

[7] = three biological replicates, 0.1 mM probe, control probe = GTP-ctrl probe

## Nc1ncnc2c1ncn2[C@@H]1O[C@H](COP(=O)(O)O)[C@@H](O)[C@H]1O [AMP, reference compound]
[1]
  competition effect on ATP-N probe labeling: not significant

## Nc1ncnc2c1ncn2[C@@H]1O[C@H](COP(=O)(O)OP(=O)(O)OP(=O)(O)O)[C@@H](O)[C@H]1O [ATP, adenosine triphosphate]
[2]
  competition effect on probe labeling (fluorescence of labeled bands): non-specific competition

## O=c1cc(CN2CCOCC2)occ1OCCCCCSc1ccnc2cc(C(F)(F)F)ccc12 [EHT 1864]
[3]
  protein intensity of PLCG1 in competition groups: overall decreased protein intensities
[4]
  protein intensity of ACTR3 in competition groups: overall decreased protein intensities
[5]
  protein intensity of ACTR2 in competition groups: overall decreased protein intensities

## Nc1nc2c(ncn2[C@@H]2O[C@H](COP(=O)([O-])[O-])[C@@H](O)[C@H]2O)c(=O)[nH]1.[Na+].[Na+] [GMP, guanosine 5′-monophosphate disodium salt]
[2]
  competition effect on probe labeling (fluorescence of labeled bands): non-specific competition

## Nc1nc2c(ncn2[C@@H]2O[C@H](COP(=O)(O)OP(=O)(O)OP(=O)(O)O)[C@@H](O)[C@H]2O)c(=O)[nH]1 [GTP, guanosine triphosphate]
[2]
  competition effect on probe labeling (fluorescence of labeled bands): significantly decrease the fluorescence intensity of several labeled proteins bands

## C#CCCC1(CCOP(=O)(O)OP(=O)(O)OP(=O)(O)OC[C@H]2O[C@@H](n3cnc4c(=O)[nH]c(N)nc43)C(O)[C@H]2O)N=N1 (stereo partly shown) [GTP-O probe]
[6]; LC-MS/MS of sample 2 (probe-modified peptides)
  probe-modified sites on labeled proteins: not detected
[6]; [7]
  GTP-binding proteins identified: 95
  total proteins identified: 1808
